The subject of data set [1] is MSC2 cells. In words: IL-6 ELISA in supernatant of MSC2 cells incubated with exosomes. The data set is classed as cell-based. The note with it: exosomes from B16F10, 24 h. As to the method:
FIG. 4: A8 blocks the activation and proliferation of MSC2 cells. (A) IL-6 concentration was determined by ELISA in the supernatant of MSC2 cells incubated or not for 24 h with exosomes (from B16F10) in the presence or absence of A8. *, p<0.05, (n=3). (B) A representative image of a western blot showing the kinetics of STAT3 phosphorylation in MCS2 cells incubated or not with exosomes isolated from B16F10, CT26 or HCT116 cells together with a peptide control (TDE) or A8 (TDE/A8). 14-3-3 is used as a loading control. In the right panels, the amount of pSTAT3 was quantified by densitometric analysis. *, p<0.05, n=4.
MSC2 cells were incubated alone or co-incubated with exosomes from B16F10 cells and/or A8 (during 24 h). Then, the supernatant was collected and centrifuged at 300 g at 4° C. for 5 min and analyzed with IL-6 ELISA assay (BD biosciences) according to the manufacturers' protocol.
Supernatants, collected from MSC2 or MDSC or co-cultured cells incubated alone or with exosomes from B16F10 cells and/or A8 (8 or 16 μM) were analyzed with IL-6, IL-10 and IFN gamma ELISA assay (BD biosciences) according to the manufacturers' protocol.
In general terms: ELISA stands for enzyme-linked immunosorbent assay.

Data set [2] has as its system EL4 tumors. Description: EL4 lymphoma tumor model in C57BL6 mice. The data set is classed as in vivo, mouse. As to the method: FIG. 10: A8 anti-tumor effect in mice is associated with an increased anti-tumor immune response. Mice were s.c. injected with EL4 cells (7·10^5). On day 5, animals were treated every two days until the end of the experiment with either A0 (control aptamer) or A8 (3 mg/kg, i.p. injection). On day 6, half the animals were i.p. treated with a single dose of 5-fluorouracil (5FU, 25 mg/kg). A) At day 10, the percentage of MDSC (Gr1^+ CD11b^+) cells in the spleen collected from the different groups of mice was analyzed by flow cytometry (6 animals per group). As a negative control (Ctl) we used animals with no tumors. B) Tumor size was measured every two days (6 animals per group; n=3). The open symbols represent animals treated with 5FU. T test: *, p<0.05, **, p<0.01, (n=3). C) EL4 tumor sections were performed 10 days after injection of A8. Dendritic cells and macrophages were labeled using, CD11c and F4/80 antibodies. A representative image is shown (n=6 per group). Labeled cells were counted from 300 cells chosen randomly in different microscopic fields.
Animals were killed 15 or 18 days after cell injection. The site of tumor cell injection was resected and snap-frozen in liquid nitrogen. An immunohistochemical study of tumor-infiltrating inflammatory cells was performed on acetone-fixed 5 μm cryostat sections. Tumoral biopsies were blocked in PBS with 3% of BSA (10 min, RT) anti-CD11c (1/50, monoclonal, BD Pharmingen), anti-CD3 (1/50, monoclonal, BD Pharmingen), anti-F4/80 (1/100, monoclonal, BD Pharmingen), diluted in PBS with 1% of BSA, was added on slides and incubated 45 minutes at RT, after washing with PBS. Nuclei were colored with mounting medium: Prolong Gold with Dapi (Molecular Probe). […] Images were acquired using an AxioCam MRm monochrome CCD camera (Carl Zeiss GmbH). Six pictures were taken in random fields for each labeling, and analyzed using image J software.
To confirm A8 in vivo results shown in FIG. 5, the inventors have used another syngeneic model: lymphoma EL4 tumors developed in C57BL6 mice. […]

The conditions of data set [3]: after systemic administration; cited from earlier work.
The subject of data set [4] is membrane HSP70 on tumor-derived exosomes (B16F10, HCT116). Description: BLI binding of tumor-derived exosomes to immobilized biotinylated A8, with or without cmHSP70. As for the experimental part: FIG. 1: Tumor-derived exosomes in cancer patient′ samples express HSP70. (A) The binding of exosomes (10^6), derived from the B16F10, HCT116 cell lines, with or without previous incubation with cmHSP70, to immobilized biotinylated A8 was determined by biolayer interferometry. (B) Association curves of HSP70-exosomes in patients' urines (1 breast, 1 pulmonary) or healthy individuals (controls) with biotinylated A8 immobilized on streptavidin sensor tips. Curves represent mean values of triplicate measurements for each concentration. (C) Exosomes expressing HSP70 were determined by FACS in urine samples from healthy individuals (n=5) and cancer metastatic cancer patients (5 breast, 4 pulmonary). The bar graph presents the means and standard deviations of the vesicle concentrations. (D) Nanoparticle Tracking Analysis (NTA) to quantify total number of exosomes in urine human samples (urines) described above. Samples were diluted in PBS and analyzed using a NanoSight LM10 instrument. Inset values represent the total number of exosomes counted 10̂^9/ml.
Protein-protein interaction experiments were conducted at 25° C. in PBS with an Octet Red instrument (Forte Bio, Menlo Park, Calif., USA) by biolayer interferometry (BLI). […] Each KD was determined with a 1:1 stoichiometry model using a global fit with Rmax unlinked by sensor (Forte Bio, Data analysis software version 7.1.0.89). […]

Where no end group is shown, it is not given here.

With SPWPRPTY [Aptamer A8, SPWPRPTY], in data set [1], the “IL-6 production by MSC2 stimulated by tumor-derived exosomes” value is “abrogated”. Also, the “tumor infiltration by immune cells” value in data set [2] was “strongly infiltrated by different immune cells”. Also, the “number of MDSC in the spleen” value in data set [2] (A8 3 mg/kg i.p. every two days, day 10) is recorded as “a decrease in the number of MDSC in the spleen”. Moreover, the “size of the tumors” value in data set [2] (A8 3 mg/kg i.p., with or without single dose 5FU 25 mg/kg i.p.) is reported as “a decrease in the size of the tumors mainly when added in combination to 5FU”. In addition, in data set [3], the “biodistribution (localization of the peptide)” value is recorded as “localizes mainly in the tumor area”. Also, in data set [4], the “ability of cmHSP70 to bind to HSP70 (competition)” value was “in a dose dependent manner, decreased the ability of cmHSP70 to bind to HSP70”. Moreover, in data set [4] (immobilized biotinylated A8, exosomes (10^6)), the “capture of exosomes through interaction with membrane-HSP70” value is “efficiently captured exosomes”.

These data come from patent US20170131285A1, “METHODS AND COMPOSITIONS FOR DIAGNOSING, MONITORING AND TREATING CANCER” (INSERM (Institut National de la Sante et de la Recherche …, priority 2014, published 2017).
